Source: patent publication US20230331737A1, “MTORC1 MODULATORS AND USES THEREOF” (Aeovian Pharmaceuticals, Inc., priority 2020, published 2023)

Legend:
FKBP12 = FKBP12 (Homo sapiens, UniProt P62942); experiment: SPR assay to determine binding affinity to FKBP12 (direct binding); conditions: immobilized biotinylated avi-FKBP12, single-cycle kinetics
Protocol: SPR Assay to Determine Binding Affinity to FKBP12.
Biotinylated avi-FKBP12 was immobilized on a streptavidin chip (Cytiva Series S SA) using a Biacore 8K or 8k+ (Cytiva). […] Test compounds described in Table 11 were diluted in DMSO to 100× working concentration. Each test compound was 100-fold diluted in 50 mM HEPES pH 7.5, 150 mM NaCl, 2 mM MgCl2, 1 mM DTT, 0.05% Tween-20 and a serial dilution prepared (9 concentrations, 3-fold dilutions, 0.08-500 nM). […] The compound dilutions were then injected at 100 uL/min for 120 seconds contact time in sequence with increasing concentrations. Dissociation was monitored for 3600 seconds. 50 mM HEPES pH 7.5, 150 mM NaCl, 2 mM MgCl2, 1 mM DTT, 0.05% Tween-20, 1% DMSO was used as running buffer. The single-cycle kinetics data were fit to a 1:1 binding model to measure the association rate ka (1/Ms), the dissociation rate kd (1/s) and the affinity Kd (M).

[1] = target: FKBP12 ternary complex with FRB (Homo sapiens, UniProt P42345+P62942); experiment: SPR assay to characterize ternary complex formation with FKBP12 (FRB injected over compound-saturated FKBP12); assay type: binding; conditions: FRB dilutions with 100 nM test compound over immobilized FKBP12
Protocol: Biotinylated avi-FKBP12 was immobilized on a streptavidin chip (Cytiva Series S SA) using a Biacore 8K or 8k+ (Cytiva). To achieve an immobilization level of 100 RU, 0.3 μg/ml biotinylated avi-FKBP12 were injected for 80 sec at a flow rate of 10 μl/min. Serial dilution of FRB was prepared (12 concentrations, 3-fold dilutions, 0.00011-20 μM) and supplemented with 100 nM of a test compound. A-B-A injection mode was used to ensure saturation immobilized FKBP12 with respective test compound. 100 nM solution of the respective test compound was injected before FRB injection for 120 sec and during dissociation for 420 sec. The FRB dilutions were then injected 120 seconds contact time with increasing concentrations. Rapamycin was used as reference sample. 50 mM HEPES pH 7.5, 150 mM NaCl, 2 mM MgCl2, 1 mM DTT, 0.05% Tween-20, 1% DMSO was used as running buffer at a flow rate of 30 μl/min. The multi-cycle kinetics data were fit to a 1:1 binding model to measure the association rate ka (1/Ms), the dissociation rate kd (1/s) and the affinity Kd (M). In case of fast association and dissociation, steady state affinity analysis following the law of mass action was used to determine the affinity Kd (M).

mTORC1 = target: T1, mTORC1 (Homo sapiens, UniProt P42345+P62942); experiment: mTORC1 inhibition in PC-3 cells, AlphaLISA of p70S6K pT389 levels; assay type: cell-based; conditions: mTORC1 as measured by inhibition of p70S6K pT389 levels, read-out: mTROC1 IC50
T1 construct: endogenous in cells; host or cells: PC-3 cells
Protocol: mTORC1 inhibition was determined via analysis of phosphorylation levels of Phospho-p70 S6 kinase (p70S6K pT389) and Phospho-S6 Ribosomal Protein (pRPS6 pS240/pS244) with the corresponding AlphaLISA kits (PerkinElmer Alpha SF Ultra™ Multiplex phospho (Thr389)/total p70 S6K Assay Kit (Eu/Tb) and AlphaLISA SF Ultra™ p-Ribosomal Protein S6 (Ser240/244) Assay Kit).
%−activity=100*((Sample−Low control)/(High control−Low control))

FKBP12, sequence (P62942 whole entry, species assumed): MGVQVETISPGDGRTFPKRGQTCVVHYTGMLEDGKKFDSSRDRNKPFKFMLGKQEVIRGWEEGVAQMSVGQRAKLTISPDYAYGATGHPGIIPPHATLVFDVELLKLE

**Q.** With `COCCO[C@@H]1C[C@@H]2CC[C@@H](C)[C@@](O)(O2)C(=O)C(=O)N2CCCC[C@H]2C(=O)O[C@H]([C@H](C)C[C@@H]2CC[C@@H](OCCO)[C@H](OC)C2)CC(=O)[C@H](C)/C=C(\C)[C@@H](O)[C@@H](OC)C(=O)[C@H](C)C[C@H](C)/C=C/C=C/C=C/1C` [Compound 40, (1R,9S,12S,15R,16E,18R,19R,21R,23S,24E,26E,28E,30R,32S,35R)-1,18-dihydroxy-12-[(1R)-2-[(1S,3R,4R)-4-(2-hydroxyethoxy)-3-methoxy-cyclohexyl]-1-methyl-ethyl]-19-methoxy-30-(2-methoxyethoxy)-15,17,21,23,29,35-hexamethyl-11,36-dioxa-4-azatricyclo[30.3.1.0^4,9]hexatriaconta-16,24,26,28-tetraene-2,3,10,14,20-pentone] as the molecule, how does the Kd (FKBP12) read?
**A.** > 1 nM

**Q.** And the Kd [1]?
**A.** 500 to 1100 nM

**Q.** And the IC50 (mTORC1)?
**A.** > 1.5 nM

**Q.** What does the source list for `COCCO[C@@H]1C[C@@H]2CC[C@@H](C)[C@@](O)(O2)C(=O)C(=O)N2CCCC[C@H]2C(=O)O[C@H]([C@H](C)C[C@@H]2CC[C@@H](OCCCN3CCN(C)CC3)[C@H](OC)C2)CC(=O)[C@H](C)/C=C(\C)[C@@H](O)[C@@H](OC)C(=O)[C@H](C)C[C@H](C)/C=C/C=C/C=C/1C` [Compound 32, (1R,9S,12S,15R,16E,18R,19R,21R,23S,24E,26E,28E,30R,32S,35R)-1,18-dihydroxy-19-methoxy-30-(2-methoxyethoxy)-12-[(1R)-2-[(1S,3R,4R)-3-methoxy-4-[3-(4-methylpiperazin-1-yl)propoxy]cyclohexyl]-1-methyl-ethyl]-15,17,21,23,29,35-hexamethyl-11,36-dioxa-4-azatricyclo[30.3.1.04,9]hexatriaconta-16,24,26,28-tetraene-2,3,10,14,20-pentone]?
**A.** Kd (FKBP12): 0.3 to 1 nM; Kd [1]: > 1100 nM; IC50 (mTORC1): > 1.5 nM

**Q.** With `COCCO[C@@H]1C[C@@H]2CC[C@@H](C)[C@@](O)(O2)C(=O)C(=O)N2CCCC[C@H]2C(=O)O[C@H]([C@H](C)C[C@@H]2CC[C@@H](O)[C@H](OC)C2)CC(=O)[C@H](C)/C=C(\C)[C@@H](O)[C@@H](OC)C(=O)[C@H](C)C[C@H](C)/C=C/C=C/C=C/1C` [Compound 130, (1R,9S,12S,15R,16E,18R,19R,21R,23S,24E,26E,28E,30R,32S,35R)-1,18-dihydroxy-12-[(1R)-2-[(1S,3R,4R)-4-hydroxy-3-methoxy-cyclohexyl]-1-methyl-ethyl]-19-methoxy-30-(2-methoxyethoxy)-15,17,21,23,29,35-hexamethyl-11,36-dioxa-4-azatricyclo[30.3.1.04,9]hexatriaconta-16,24,26,28-tetraene-2,3,10,14,20-pentone] as the molecule, how does the Kd (FKBP12) read?
**A.** 0.3 to 1 nM

**Q.** And the Kd [1]?
**A.** 500 to 1100 nM

**Q.** And the IC50 (mTORC1)?
**A.** 0.8 to 1.5 nM

**Q.** What does the source list for `COCCO[C@H]1C[C@@H]2CC[C@@H](C)[C@@](O)(O2)C(=O)C(=O)N2CCCC[C@H]2C(=O)O[C@H]([C@H](C)C[C@@H]2CC[C@@H](OCCO)[C@H](OC)C2)CC(=O)[C@H](C)/C=C(\C)[C@@H](O)[C@@H](OC)C(=O)[C@H](C)C[C@H](C)/C=C/C=C/C=C/1C` [Compound 439, (1R,9S,12S,15R,16E,18R,19R,21R,23S,24E,26E,28E,30S,32S,35R)-1,18-dihydroxy-12-[(1R)-2-[(1S,3R,4R)-4-(2-hydroxyethoxy)-3-methoxy-cyclohexyl]-1-methyl-ethyl]-19-methoxy-30-(2-methoxyethoxy)-15,17,21,23,29,35-hexamethyl-11,36-dioxa-4-azatricyclo[30.3.1.0^4,9]hexatriaconta-16,24,26,28-tetraene-2,3,10,14,20-pentone]?
**A.** Kd (FKBP12): 0.3 to 1 nM; Kd [1]: < 500 nM; IC50 (mTORC1): < 0.8 nM
